In US6355799B1, “Substituted benzene compounds, process for their preparation, and herbicidal and defoliant compositions containing them” (ISK Americas Incorporated, priority 1997, dated 2002):

What was measured:
Assay type in all cases: in vivo
[1] = system: redroot pigweed (Amaranthus retroflexus, AMARE); assay: Post-emerge test, greenhouse herbicide activity screening; settings: post-emerge, 14 days after application
Procedure, shortened: (§1)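 Herbicidal damage is scored 0 (none) to 100 (complete plant death) two weeks after a simulated field spray. Rates span 15–1000 g ai/ha, delivered in acetone at 187 l/ha. For post-emergence treatments, plants have 2–3 leaves and the spray carries 0.25% v/v non-ionic surfactant.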

[2] = system: johnsongrass (Sorghum halepense, SORHA); assay: as above; settings: post-emerge, 14 days after application, rating scale 0-100
Procedure, shortened: as §1

[3] = system: green foxtail (Setaria viridis, SETVI); assay: as above; settings: post-emerge, 14 days after application, rating scale 0-100
Procedure, shortened: as §1

[4] = system: barnyardgrass (Echinochloa crus-galli, ECHCG); assay: as above; settings: post-emerge, 14 days after application, rating scale 0-100
Procedure, shortened: as §1

[5] = system: large crabgrass (Digitaria sanguinalis, DIGSA); assay: as above; settings: post-emerge, 14 days after application, rating scale 0-100
Procedure, shortened: as §1

[6] = system: velvetleaf (Abutilon theophrasti, ABUTH); assay: as above; settings: post-emerge, 14 days after application, rating scale 0-100
Procedure, shortened: as §1

[7] = system: ivyleaf morningglory (Ipomoea hederacea, IPOHE); assay: as above; settings: post-emerge, 14 days after application, rating scale 0-100
Procedure, shortened: as §1

[8] = system: sicklepod (Cassia obtusifolia, CASOB); assay: as above; settings: post-emerge, 14 days after application, rating scale 0-100
Procedure, shortened: as §1

[9] = system: lambsquarters (Chenopodium album, CHEAL); assay: as above; settings: post-emerge, 14 days after application, rating scale 0-100
Procedure, shortened: as §1

[10] = system: johnsongrass (Sorghum halepense, SORHA); assay: Pre-emerge test, greenhouse herbicide activity screening; settings: phytotoxicity rating 0-100, 14 days after application
Procedure, shortened: (§2)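 Compounds in acetone were track-sprayed at 15-1000 g ai/ha (187 l/ha) on sandy loam pots: pre-emerge one day after seeding, post-emerge at 2-3 leaf stage with 0.25% v/v non-ionic surfactant. Phytotoxicity was rated 14 days later on a 0 (no damage) to 100 (complete death) scale.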

[11] = system: green foxtail (Setaria viridis, SETVI); assay: as above; settings: phytotoxicity rating 0-100, 14 days after application
Procedure, shortened: as §2

[12] = system: barnyardgrass (Echinochloa crus-galli, ECHCG); assay: as above; settings: phytotoxicity rating 0-100, 14 days after application
Procedure, shortened: as §2

[13] = system: large crabgrass (Digitaria sanguinalis, DIGSA); assay: as above; settings: phytotoxicity rating 0-100, 14 days after application
Procedure, shortened: as §2

[14] = system: velvetleaf (Abutilon theophrasti, ABUTH); assay: as above; settings: phytotoxicity rating 0-100, 14 days after application
Procedure, shortened: as §2

[15] = system: ivyleaf morningglory (Ipomoea hederacea, IPOHE); assay: as above; settings: phytotoxicity rating 0-100, 14 days after application
Procedure, shortened: as §2

[16] = system: sicklepod (Cassia obtusifolia, CASOB); assay: as above; settings: phytotoxicity rating 0-100, 14 days after application
Procedure, shortened: as §2

[17] = system: lambsquarters (Chenopodium album, CHEAL); assay: as above; settings: phytotoxicity rating 0-100, 14 days after application
Procedure, shortened: as §2

[18] = system: field corn (Zea mays L., var. Dekalb 535, CORN); assay: Pre-emerge test, crop safety; settings: crop damage rating 0-100, 14 days after application
Procedure, shortened: (§3)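 Visual ratings on a 0-100 scale (0 no damage, 100 all plants dead) were taken at 14 days after treatment. Rates of 15-1000 g ai/ha in acetone, 187 l/ha, were sprayed onto soil one day after planting (pre-emerge) or onto 2-3 leaf plants with 0.25% v/v surfactant (post-emerge).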

[19] = system: upland rice (Oryza sp., var. Tebonnet, RICE); assay: Pre-emerge test, crop safety; settings: crop damage rating 0-100, 14 days after application
Procedure, shortened: as §3

[20] = system: field corn (Zea mays L., var. Dekalb 535, CORN); assay: Post-emerge test, crop safety; settings: post-emerge, 14 days after application, rating scale 0-100
Procedure, shortened: as §2

[21] = system: upland rice (Oryza sp., var. Tebonnet, RICE); assay: Post-emerge test, crop safety; settings: post-emerge, 14 days after application, rating scale 0-100
Procedure, shortened: as §2

[22] = system: redroot pigweed (Amaranthus retroflexus, AMARE); assay: Pre-emerge test, greenhouse herbicide activity screening; settings: phytotoxicity rating 0-100, 14 days after application
Procedure, shortened: as §3

[23] = 63 g ai/ha, rating scale 0-100 (0 no damage, 100 complete death)
[24] = 250 g ai/ha, rating scale 0-100

Compound: COc1c(Cl)cc(F)c(-n2c(=O)cc(C(F)(F)F)n(C)c2=O)c1NC(=O)OCc1ccc2ccccc2c1 [4-28]
- phytotoxicity rating AMARE [1, 23]: 80
- phytotoxicity rating AMARE [1, 24]: 100
- phytotoxicity rating SORHA ([2]; 63 g ai/ha): 0
- phytotoxicity rating SORHA ([2]; 250 g ai/ha): 10
- phytotoxicity rating SETVI ([3]; 63 g ai/ha): 10
- phytotoxicity rating SETVI ([3]; 250 g ai/ha): 30
- phytotoxicity rating ECHCG ([4]; 63 g ai/ha): 0
- phytotoxicity rating ECHCG ([4]; 250 g ai/ha): 20
- phytotoxicity rating DIGSA ([5]; 63 g ai/ha): 0
- phytotoxicity rating DIGSA ([5]; 250 g ai/ha): 20
- phytotoxicity rating ABUTH ([6]; 63 g ai/ha): 100
- phytotoxicity rating ABUTH ([6]; 250 g ai/ha): 100
- phytotoxicity rating IPOHE ([7]; 63 g ai/ha): 60
- phytotoxicity rating IPOHE ([7]; 250 g ai/ha): 80
- phytotoxicity rating CASOB ([8]; 63 g ai/ha): 50
- phytotoxicity rating CASOB ([8]; 250 g ai/ha): 50
- phytotoxicity rating CHEAL ([9]; 63 g ai/ha): 70
- phytotoxicity rating CHEAL ([9]; 250 g ai/ha): 90
- Pre-emerge Herbicidal Activity SORHA ([10]; 63 g ai/ha): 0
- Pre-emerge Herbicidal Activity SORHA ([10]; 250 g ai/ha): 0
- Pre-emerge Herbicidal Activity SETVI ([11]; 63 g ai/ha): 20
- Pre-emerge Herbicidal Activity SETVI ([11]; 250 g ai/ha): 60
- Pre-emerge Herbicidal Activity ECHCG ([12]; 63 g ai/ha): 0
- Pre-emerge Herbicidal Activity ECHCG ([12]; 250 g ai/ha): 0
- Pre-emerge Herbicidal Activity DIGSA ([13]; 63 g ai/ha): 0
- Pre-emerge Herbicidal Activity DIGSA ([13]; 250 g ai/ha): 0
- Pre-emerge Herbicidal Activity ABUTH ([14]; 63 g ai/ha): 20
- Pre-emerge Herbicidal Activity ABUTH ([14]; 250 g ai/ha): 60
- Pre-emerge Herbicidal Activity IPOHE ([15]; 63 g ai/ha): 0
- Pre-emerge Herbicidal Activity IPOHE ([15]; 250 g ai/ha): 0
- Pre-emerge Herbicidal Activity CASOB ([16]; 63 g ai/ha): 0
- Pre-emerge Herbicidal Activity CASOB ([16]; 250 g ai/ha): 0
- Pre-emerge Herbicidal Activity CHEAL ([17]; 63 g ai/ha): 70
- Pre-emerge Herbicidal Activity CHEAL ([17]; 250 g ai/ha): 100
- Pre-emerge Herbicidal Activity CORN ([18]; 63 g ai/ha): 0
- Pre-emerge Herbicidal Activity CORN ([18]; 250 g ai/ha): 0
- Pre-emerge Herbicidal Activity RICE ([19]; 63 g ai/ha): 0
- Pre-emerge Herbicidal Activity RICE ([19]; 250 g ai/ha): 15
- phytotoxicity rating CORN (crop damage) ([20]; 63 g ai/ha): 0
- phytotoxicity rating CORN (crop damage) ([20]; 250 g ai/ha): 5
- phytotoxicity rating RICE (crop damage) ([21]; 63 g ai/ha): 10
- phytotoxicity rating RICE (crop damage) ([21]; 250 g ai/ha): 15
- Pre-emerge Herbicidal Activity AMARE ([22]; 63 g ai/ha): 40
- Pre-emerge Herbicidal Activity AMARE ([22]; 250 g ai/ha): 70

Compound: COc1c(Cl)cc(F)c(-n2c(=O)cc(C(F)(F)F)n(C)c2=O)c1NC(=O)OCc1c(F)cccc1F [4-29]
- phytotoxicity rating AMARE [1, 23]: 100
- phytotoxicity rating AMARE [1, 24]: 100
- phytotoxicity rating SORHA ([2]; 63 g ai/ha): 60
- phytotoxicity rating SORHA ([2]; 250 g ai/ha): 100
- phytotoxicity rating SETVI ([3]; 63 g ai/ha): 80
- phytotoxicity rating SETVI ([3]; 250 g ai/ha): 99
- phytotoxicity rating ECHCG ([4]; 63 g ai/ha): 70
- phytotoxicity rating ECHCG ([4]; 250 g ai/ha): 90
- phytotoxicity rating DIGSA ([5]; 63 g ai/ha): 50
- phytotoxicity rating DIGSA ([5]; 250 g ai/ha): 90
- phytotoxicity rating ABUTH ([6]; 63 g ai/ha): 100
- phytotoxicity rating ABUTH ([6]; 250 g ai/ha): 100
- phytotoxicity rating IPOHE ([7]; 63 g ai/ha): 100
- phytotoxicity rating IPOHE ([7]; 250 g ai/ha): 100
- phytotoxicity rating CASOB ([8]; 63 g ai/ha): 90
- phytotoxicity rating CASOB ([8]; 250 g ai/ha): 100
- phytotoxicity rating CHEAL ([9]; 63 g ai/ha): 90
- phytotoxicity rating CHEAL ([9]; 250 g ai/ha): 100
- Pre-emerge Herbicidal Activity SORHA ([10]; 63 g ai/ha): 70
- Pre-emerge Herbicidal Activity SORHA ([10]; 250 g ai/ha): 90
- Pre-emerge Herbicidal Activity SETVI ([11]; 63 g ai/ha): 100
- Pre-emerge Herbicidal Activity SETVI ([11]; 250 g ai/ha): 100
- Pre-emerge Herbicidal Activity ECHCG ([12]; 63 g ai/ha): 70
- Pre-emerge Herbicidal Activity ECHCG ([12]; 250 g ai/ha): 90
- Pre-emerge Herbicidal Activity DIGSA ([13]; 63 g ai/ha): 100
- Pre-emerge Herbicidal Activity DIGSA ([13]; 250 g ai/ha): 100
- Pre-emerge Herbicidal Activity ABUTH ([14]; 63 g ai/ha): 100
- Pre-emerge Herbicidal Activity ABUTH ([14]; 250 g ai/ha): 100
- Pre-emerge Herbicidal Activity IPOHE ([15]; 63 g ai/ha): 70
- Pre-emerge Herbicidal Activity IPOHE ([15]; 250 g ai/ha): 90
- Pre-emerge Herbicidal Activity CASOB ([16]; 63 g ai/ha): 40
- Pre-emerge Herbicidal Activity CASOB ([16]; 250 g ai/ha): 80
- Pre-emerge Herbicidal Activity CHEAL ([17]; 63 g ai/ha): 100
- Pre-emerge Herbicidal Activity CHEAL ([17]; 250 g ai/ha): 100
- Pre-emerge Herbicidal Activity CORN ([18]; 63 g ai/ha): 80
- Pre-emerge Herbicidal Activity CORN ([18]; 250 g ai/ha): 95
- Pre-emerge Herbicidal Activity RICE ([19]; 63 g ai/ha): 50
- Pre-emerge Herbicidal Activity RICE ([19]; 250 g ai/ha): 85
- phytotoxicity rating CORN (crop damage) ([20]; 63 g ai/ha): 80
- phytotoxicity rating CORN (crop damage) ([20]; 250 g ai/ha): 100
- phytotoxicity rating RICE (crop damage) ([21]; 63 g ai/ha): 60
- phytotoxicity rating RICE (crop damage) ([21]; 250 g ai/ha): 85
- Pre-emerge Herbicidal Activity AMARE ([22]; 63 g ai/ha): 100
- Pre-emerge Herbicidal Activity AMARE ([22]; 250 g ai/ha): 100
